According to ChEMBL document CHEMBL1201862, “PubChem BioAssay data set” (2004):
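Where inhibition never reached the appropriate level, the endpoint shown equals the highest concentration tested. Otherwise, values were interpolated linearly from a five-concentration, 48-hour dose response in 96-well plates. GI50 = concentration required for 50% inhibition of growth.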 Activity calls are given as the source filed them. Cut-off read from the data, not from the text of the source: active = GI50 up to about 1.1 µM and inactive = higher.

Tests used:
Test in all cases: NCI-60 cell line screen, 48 h
T47D = tested on: T47D
HCT-116 = tested on: HCT-116
SF-268 = tested on: SF-268
SW-620 = tested on: SW-620
K562 = tested on: K562
A549 = tested on: A549
UO-31 = tested on: UO-31
NCI-H522 = tested on: NCI-H522
PC-3 = tested on: PC-3
LOX IMVI = tested on: LOX IMVI
HT-29 = tested on: HT-29
SK-MEL-28 = tested on: SK-MEL-28
HOP-62 = tested on: HOP-62
RXF 393 = tested on: RXF 393
HOP-92 = tested on: HOP-92
SN12C = tested on: SN12C
NCI-H226 = tested on: NCI-H226

Structure (SMILES) | GI50 (T47D) | GI50 (HCT-116) | GI50 (SF-268) | GI50 (SW-620) | GI50 (K562) | GI50 (A549) | GI50 (UO-31) | GI50 (NCI-H522) | GI50 (PC-3) | GI50 (LOX IMVI) | GI50 (HT-29) | GI50 (SK-MEL-28) | GI50 (HOP-62) | GI50 (RXF 393) | GI50 (HOP-92) | GI50 (SN12C) | GI50 (NCI-H226)
S=C(Nc1ccccc1)c1ccc(CN2CCCCC2)s1 | 26.4 µM (inactive) | 17.5 µM (inactive) | 26.4 µM (inactive) | 16.4 µM (inactive) | 13.8 µM (inactive) | 29.6 µM (inactive) | 16.2 µM (inactive) | 17.8 µM (inactive) | 29.7 µM (inactive) | 17.7 µM (inactive) | 11.3 µM (inactive) | 16.2 µM (inactive) | 26.5 µM (inactive) |  |  |  | 
CCCSc1ccc2[nH]c(N3C(=O)/C(=C/c4ccccc4)N=C3c3ccccc3)cc2c1 | 22.8 µM (inactive) | 22.4 µM (inactive) | 18.4 µM (inactive) | 18.7 µM (inactive) | 14.2 µM (inactive) | 19.5 µM (inactive) | 42.9 µM (inactive) | 12.1 µM (inactive) | 23.7 µM (inactive) | 20.4 µM (inactive) | 16.7 µM (inactive) | 32.4 µM (inactive) |  | 20 µM (inactive) | > 50 µM (inactive) | 30.9 µM (inactive) | 
[O-][S+](Nc1ccccc1)c1ccc(Cl)cc1 (configuration not stated) | 50.1 µM (inactive) | 61.5 µM (inactive) | 16.2 µM (inactive) | > 100 µM (inactive) | > 100 µM (inactive) | 48.4 µM (inactive) | 44.8 µM (inactive) | 73.3 µM (inactive) |  | > 100 µM (inactive) | > 100 µM (inactive) | > 100 µM (inactive) | > 100 µM (inactive) |  |  | > 100 µM (inactive) | > 100 µM (inactive)
CO[C@@]12C[C@@H](CNC(=O)c3cc(Br)c[nH]3)O[C@@H]1NC(=O)N2 | > 100 µM (inactive) | > 100 µM (inactive) | > 100 µM (inactive) | > 100 µM (inactive) |  | > 100 µM (inactive) | > 100 µM (inactive) | > 100 µM (inactive) | > 100 µM (inactive) | > 100 µM (inactive) | > 100 µM (inactive) | > 100 µM (inactive) | > 100 µM (inactive) | > 100 µM (inactive) |  | > 100 µM (inactive) | > 100 µM (inactive)
COc1ccc(-c2csc3c2-n2cccc2C3=O)cc1 |  | 0.0461 µM (active) | 1.75 µM (inactive) | < 0.0232 µM (active) | < 0.0285 µM (active) | 0.159 µM (active) | 0.11 µM (active) |  | < 0.0367 µM (active) | 0.0458 µM (active) | 0.028 µM (active) | 0.406 µM (active) | 0.0656 µM (active) | 0.07 µM (active) | 3.12 µM (inactive) | 0.0885 µM (active) | 4.46 µM (inactive)
Cc1cc2c(SCc3ccccc3Cl)nc(N)nc2nc1C | > 100 µM (inactive) | > 100 µM (inactive) | 65.5 µM (inactive) | > 100 µM (inactive) |  | > 100 µM (inactive) | 1.79 µM (inactive) | 21.4 µM (inactive) | > 100 µM (inactive) | > 100 µM (inactive) | > 100 µM (inactive) | > 100 µM (inactive) | > 100 µM (inactive) | > 100 µM (inactive) | 62.4 µM (inactive) | > 100 µM (inactive) | 
Nc1c(-c2ccccc2)c2ccc([N+](=O)[O-])cc2c(=O)n1-c1cccc(C(=O)O)c1 | > 100 µM (inactive) | > 100 µM (inactive) | > 100 µM (inactive) | > 100 µM (inactive) | > 100 µM (inactive) | > 100 µM (inactive) | > 100 µM (inactive) | > 100 µM (inactive) | > 100 µM (inactive) | > 100 µM (inactive) | > 100 µM (inactive) | > 100 µM (inactive) | > 100 µM (inactive) | > 100 µM (inactive) |  |  | > 100 µM (inactive)
CCC(=O)C(CCN1CCC(N2C(=O)C(CCC#N)c3ccccc32)CC1)(c1ccccc1)c1ccccc1 (configuration not stated) | 7.85 µM (inactive) | 4.9 µM (inactive) | 16.1 µM (inactive) | 11.8 µM (inactive) | 3.8 µM (inactive) | 14 µM (inactive) | 9.53 µM (inactive) | 12.7 µM (inactive) | 18.5 µM (inactive) | 12.8 µM (inactive) | 3.4 µM (inactive) | 18.7 µM (inactive) | 17.9 µM (inactive) | 3.37 µM (inactive) |  | 18 µM (inactive) | 17.3 µM (inactive)
O=[N+]([O-])/C(C(Cl)=C(Cl)Cl)=C1\Nc2ccc([N+](=O)[O-])cc2N1 | > 100 µM (inactive) | 46.5 µM (inactive) | 61.8 µM (inactive) |  | > 100 µM (inactive) | > 100 µM (inactive) | 14.1 µM (inactive) | 13.5 µM (inactive) | > 100 µM (inactive) |  |  | > 100 µM (inactive) | > 100 µM (inactive) |  | 14.3 µM (inactive) | 55.7 µM (inactive) | > 100 µM (inactive)
COc1cc2c(cc1O)C(=O)O[C@@H]1CC=C3CCN(C)[C@H]3[C@H]21 | > 25 µM (inactive) | > 25 µM (inactive) | > 25 µM (inactive) | > 25 µM (inactive) | > 25 µM (inactive) | > 25 µM (inactive) | > 25 µM (inactive) | > 25 µM (inactive) | > 25 µM (inactive) |  | > 25 µM (inactive) | > 25 µM (inactive) | > 25 µM (inactive) | > 25 µM (inactive) |  | > 25 µM (inactive) | > 25 µM (inactive)
O=c1[nH]nc(Cc2ccccc2)n1CCCl | > 100 µM (inactive) | > 100 µM (inactive) | > 100 µM (inactive) | > 100 µM (inactive) | > 100 µM (inactive) |  | > 100 µM (inactive) |  | > 100 µM (inactive) | > 100 µM (inactive) | > 100 µM (inactive) | > 100 µM (inactive) | > 100 µM (inactive) | 90.8 µM (inactive) |  | > 100 µM (inactive) | > 100 µM (inactive)
CC(=O)NC1C(Sc2ncn(C3OC(CO)C(O)C(O)C3NC(C)=O)n2)OC(CO)C(O)C1O (configuration not stated) | > 100 µM (inactive) | > 100 µM (inactive) | > 100 µM (inactive) | > 100 µM (inactive) |  | > 100 µM (inactive) |  | > 100 µM (inactive) | > 100 µM (inactive) | > 100 µM (inactive) | > 100 µM (inactive) | > 100 µM (inactive) | > 100 µM (inactive) | > 100 µM (inactive) | > 100 µM (inactive) | > 100 µM (inactive) | 
O=c1[nH]c(=O)n(COCc2ccccc2)c2ccccc12 |  | 46.3 µM (inactive) |  | > 100 µM (inactive) | 45.6 µM (inactive) | 92.7 µM (inactive) | 29.1 µM (inactive) |  | 39.7 µM (inactive) | 95.3 µM (inactive) | 31.9 µM (inactive) | 91.4 µM (inactive) |  | 19.1 µM (inactive) | 77.6 µM (inactive) | > 100 µM (inactive) | 47.8 µM (inactive)
Cc1cn2c(C)csc2c1P(=O)(OC(C)C)OC(C)C |  | > 100 µM (inactive) | > 100 µM (inactive) | > 100 µM (inactive) | > 100 µM (inactive) | > 100 µM (inactive) | > 100 µM (inactive) | > 100 µM (inactive) | > 100 µM (inactive) | > 100 µM (inactive) | > 100 µM (inactive) | > 100 µM (inactive) | > 100 µM (inactive) | > 100 µM (inactive) | > 100 µM (inactive) | > 100 µM (inactive) | 
COC(=O)/C=C(C)/C=C\COC1CCCCO1 (configuration not stated) | > 100 µM (inactive) | > 100 µM (inactive) | > 100 µM (inactive) | > 100 µM (inactive) | > 100 µM (inactive) | > 100 µM (inactive) | > 100 µM (inactive) | > 100 µM (inactive) | > 100 µM (inactive) | > 100 µM (inactive) |  | > 100 µM (inactive) | > 100 µM (inactive) | > 100 µM (inactive) |  | > 100 µM (inactive) | > 100 µM (inactive)
CCCC(=O)NC1CCc2cc(OC)c(OC)c(OC)c2-c2ccc(OC)c(=O)cc21 (configuration not stated) |  | 0.000361 µM (active) | 0.00157 µM (active) | 0.000481 µM (active) | 0.00041 µM (active) | 0.00538 µM (active) | 0.0813 µM (active) | 0.000442 µM (active) | 0.000731 µM (active) | 0.00045 µM (active) | 0.00036 µM (active) | 0.01 µM (active) | 0.000679 µM (active) | 0.01 µM (active) | 0.447 µM (active) | 0.000782 µM (active) | 0.000771 µM (active)
COC(=O)C12CCCN1CCC2 | > 100 µM (inactive) | > 100 µM (inactive) | > 100 µM (inactive) | > 100 µM (inactive) | > 100 µM (inactive) | > 100 µM (inactive) | > 100 µM (inactive) | > 100 µM (inactive) | > 100 µM (inactive) | > 100 µM (inactive) | > 100 µM (inactive) | > 100 µM (inactive) | > 100 µM (inactive) | > 100 µM (inactive) |  | > 100 µM (inactive) | > 100 µM (inactive)
CCOC(=O)c1csc(NC(=O)CN2CCOCC2)n1 | > 100 µM (inactive) |  | > 100 µM (inactive) | > 100 µM (inactive) | > 100 µM (inactive) | > 100 µM (inactive) | > 100 µM (inactive) |  | > 100 µM (inactive) | > 100 µM (inactive) | > 100 µM (inactive) | > 100 µM (inactive) | > 100 µM (inactive) | > 100 µM (inactive) | > 100 µM (inactive) |  | 
O=[N+]([O-])c1ccc2c(c1)C1=C(CO2)Cc2ccccc2O1 | 10.9 µM (inactive) | 16.3 µM (inactive) | 21.3 µM (inactive) | 21.3 µM (inactive) | 51.4 µM (inactive) | 42.4 µM (inactive) | 13.7 µM (inactive) | 22.4 µM (inactive) | 19.1 µM (inactive) | 14.8 µM (inactive) | 26.2 µM (inactive) |  | 64.6 µM (inactive) |  | 23.9 µM (inactive) | 25.9 µM (inactive) | 26.2 µM (inactive)
